Results from US11649235B2, “Pan-tropic entry inhibitors” (Emory University, priority 2018, dated 2023).

What was measured:
Format in all cases: cell-based
HIV-1BaL = experiment: HIV MAGI assay, HIV-1BaL; conditions: Table 3
Protocol: (§1) HIV-1 and MAGI Tropism assays can be used to establish activity/cytotoxicity and synergy studies and ADME profiles of compounds are evaluated using in vitro assays such as CYP2D6/3A4 assays and metabolic stability in human and mouse liver microsomes (See Tables 2 and 3).

MAGI [1] = experiment: Cytotoxicity in MAGI HIV-1IIIB assay
Protocol: as §1

HIV-1IIIB = experiment: HIV MAGI assay, HIV-1IIIB; conditions: Table 3
Protocol: as §1

MAGI [2] = experiment: Cytotoxicity in MAGI HIV-1BaL assay
Protocol: as §1

[3] = Human immunodeficiency virus 1, MAGI

| IC50 (HIV-1BaL; [3]) | IC90 (HIV-1BaL; [3]) | IC50 (HIV-1IIIB; [3]) | IC90 (HIV-1IIIB; [3]) | Structure (SMILES) | IC50 (HIV-1BaL) | IC90 (HIV-1BaL) | MAGI HIV-1IIIB TC50 (MAGI [1]; human) | IC50 (HIV-1IIIB) | IC90 (HIV-1IIIB) | MAGI HIV-1BaL TC90 (MAGI [2]; human) | MAGI HIV-1IIIB TC50 (MAGI [1]; Table 3) | MAGI HIV-1BaL TC90 (MAGI [2]; Table 3, head prints TC90) |
| --- | --- | --- | --- | --- | --- | --- | --- | --- | --- | --- | --- | --- |
| – | – | – | – | NCCCCN(CC1NC[C@@H]2CC[C@H]1N2CC[C@H](NC(=O)C1CCC(F)(F)CC1)c1ccccc1)[C@H]1CCCc2cccnc21 (single isomer, unassigned) [LRf isomer 95] | 9360 nM | > 100 µM | >10.0 µM | > 10 µM | > 10 µM | >100 µM | – | – |
| – | – | – | – | NCCCCN(CC1NC[C@@H]2CC[C@H]1N2CC[C@H](NC(=O)C1CCC(F)(F)CC1)c1ccccc1)[C@H]1CCCc2cccnc21 (single isomer, unassigned) [URf isomer 95] | 820 nM | 8.96 µM | >10.0 µM | 0.17 µM | 0.9 µM | >100 µM | – | – |
| 330 nM | 4.38 µM | 12.4 µM | 65.8 µM | NCCCCN(C[C@H]1CN(CC[C@H](NC(=O)C2CCC(F)(F)CC2)c2ccccc2)CCN1Cc1cncs1)[C@H]1CCCc2cccnc21 [Compound 66] | – | – | – | – | – | – | >100 µM | >100 µM |
| 2330 nM | 36.7 µM | 3.19 µM | 44.6 µM | NCCCCN(C[C@H]1CN(CC[C@H](NC(=O)C2CCC(F)(F)CC2)c2ccccc2)CCN1Cc1cnco1)[C@H]1CCCc2cccnc21 [Compound 67] | – | – | – | – | – | – | >100 µM | >100 µM |
| 4160 nM | 66.8 µM | 10.2 µM | 70.2 µM | CN1CCN(CC[C@H](NC(=O)C2CCC(F)(F)CC2)c2ccccc2)C[C@@H]1CN(CCCCN)[C@H]1CCCc2cccnc21 [Compound 68] | – | – | – | – | – | – | >100 µM | >100 µM |
| 2510 nM | 97.1 µM | 6.61 µM | 68.5 µM | NCCCCN(C[C@H]1CN(CC[C@H](NC(=O)C2CCC(F)(F)CC2)c2ccccc2)CCN1CC1COC1)[C@H]1CCCc2cccnc21 [Compound 75, N—((S)-3-((R)-3-(((4-aminobutyl)((S)-5,6,7,8-tetrahydroquinolin-8-yl)amino)methyl)-4-(oxetan-3-ylmethyl)piperazin-1-yl)-1-phenylpropyl)-4,4-difluorocyclohexane-1-carboxamide] | – | – | – | – | – | – | >100 µM | >100 µM |
| 1540 nM | 23 µM | 0.002 µM | 0.009 µM | NCCCCN(C[C@H]1CN(CC[C@H](NC(=O)C2CCC(F)(F)CC2)c2ccccc2)CCN1Cc1cnc[nH]1)[C@H]1CCCc2cccnc21 [Compound 77, N—((S)-3-((R)-4-((1H-imidazol-5-yl)methyl)-3-(((4-aminobutyl)((S)-5,6,7,8-tetrahydroquinolin-8-yl)amino)methyl)piperazin-1-yl)-1-phenylpropyl)-4,4-difluorocyclohexane-1-carboxamide] | – | – | – | – | – | – | >100 µM | >100 µM |
| 660 nM | 7.35 µM | 2.58 µM | 36.5 µM | Cn1cncc1CN1CCN(CC[C@H](NC(=O)C2CCC(F)(F)CC2)c2ccccc2)C[C@@H]1CN(CCCCN)[C@H]1CCCc2cccnc21 [Compound 79, N—((S)-3-((R)-3-(((4-aminobutyl)((S)-5,6,7,8-tetrahydroquinolin-8-yl)amino)methyl)-4-((1-methyl-1H-imidazol-5-yl)methyl)piperazin-1-yl)-1-phenylpropyl)-4,4-difluorocyclohexane-1-carboxamide] | – | – | – | – | – | – | >100 µM | >100 µM |
| 950 nM | 22.7 µM | 3.49 µM | 52.7 µM | NCCCCN(C[C@H]1CN(CC[C@H](NC(=O)C2CCC(F)(F)CC2)c2ccccc2)CCN1Cc1ccncc1)[C@H]1CCCc2cccnc21 [Compound 81, N—((S)-3-((R)-3-(((4-aminobutyl)((S)-5,6,7,8-tetrahydroquinolin-8-yl)amino)methyl)-4-(pyridin-4-ylmethyl)piperazin-1-yl)-1-phenylpropyl)-4,4-difluorocyclohexane-1-carboxamide] | – | – | – | – | – | – | >100 µM | >100 µM |
